# Tests used:
# Assay in all cases: KinomeScan kinase profiling
# Type in all cases: binding
# [1] = target: T1, MST2 (Homo sapiens, UniProt Q13188)
# T1 construct: host or cells: T7 phage in E. coli host derived from BL21
# From the text: (§1) The kinases were ABL1(F317L), ABL1(H396P), ABL1(Q252H), ABL1(Y253F), ADCK3, ADCK4, ALK, ARK5, AXL, BLK, BRSK2, CDK7, CIT, CLK4, CSNK1D, CSNK1E, DAPK1, DAPK3, DCAMKL3, DMPK, EGFR, EGFR(E746-A750DEL), EGFR(G719C), EGFR(G719S), EGFR(L747-E749DEL, A750P), EGFR(L747-S752 DEL, P753S), EGFR(L747-T751DEL, Sin), EGFR(L858R), EGFR(L861Q), EGFR(S752-I759DEL), EPHA5, EPHA6, ERBB2, ERBB4, ERK3, ERK4, FGR, FLT3(D835H), FLT3(D835Y), FLT3(ITD), FLT3(N841 I), FRK, GAK, GCN2(KIN.DOM.2, S808G), HCK, IRAK3, JAK1(KIN.DOM.1), KIT, KIT(D816V), KIT(V559D), KIT(V559D,T670I), LCK, LOK, LTK, LYN, MAP3K3, MAP4K4, MAP4K5, MET, MINK, MKNK1, MKNK2, MST4, MYLK2, PDGFRB, PIM3, PKN2, PRKD1, PRKD2, PRKD3, PRKG1, RIPK2, RPS6KA4(KIN.DOM.2), SIK2, SLK, SNARK, SRC, STK36, TNIK, TNNI3K, TYK2(KIN.DOM.2).
# (§2) Kinase assays: Assays were performed as described in Fabian et al. (2005) Nature Biotechnology, vol. 23, p. 329. Kinase-tagged T7 phage strains were grown in parallel in 24 or 96-well blocks in an E. coli host derived from the BL21 strain. E. coli were grown to log-phase and infected with T7 phage from a frozen stock (multiplicity of infection ˜0.1) and incubated with shaking at 32° C. until lysis (˜90 minutes). The lysates were centrifuged and filtered to remove cell debris. […] The liganded beads were blocked with excess biotin and washed with blocking buffer (SeaBlock (Pierce), 1% BSA, 0.05% Tween 20, 1 mM DTT) to remove unbound ligand and to reduce non-specific phage binding.
# (§3) Test compounds were prepared as 40× stocks in DMSO and diluted into the aqueous environment. 2.5% DMSO was added to control assays lacking a test compound. All reactions were performed in polystyrene 96-well plates that had been pretreated with blocking buffer in a final volume of 0.04 ml. […] The phage titer in the eluates was measured by quantitative PCR.
# [2] = target: T2, TYRO3 (Homo sapiens, UniProt Q06418)
# T2 construct: purchased Ambit Biosciences Corp (KinomeScan); host or cells: E. coli host derived from the BL21 strain (T7 phage lysate)
# T2 sequence (Q06418 41-890): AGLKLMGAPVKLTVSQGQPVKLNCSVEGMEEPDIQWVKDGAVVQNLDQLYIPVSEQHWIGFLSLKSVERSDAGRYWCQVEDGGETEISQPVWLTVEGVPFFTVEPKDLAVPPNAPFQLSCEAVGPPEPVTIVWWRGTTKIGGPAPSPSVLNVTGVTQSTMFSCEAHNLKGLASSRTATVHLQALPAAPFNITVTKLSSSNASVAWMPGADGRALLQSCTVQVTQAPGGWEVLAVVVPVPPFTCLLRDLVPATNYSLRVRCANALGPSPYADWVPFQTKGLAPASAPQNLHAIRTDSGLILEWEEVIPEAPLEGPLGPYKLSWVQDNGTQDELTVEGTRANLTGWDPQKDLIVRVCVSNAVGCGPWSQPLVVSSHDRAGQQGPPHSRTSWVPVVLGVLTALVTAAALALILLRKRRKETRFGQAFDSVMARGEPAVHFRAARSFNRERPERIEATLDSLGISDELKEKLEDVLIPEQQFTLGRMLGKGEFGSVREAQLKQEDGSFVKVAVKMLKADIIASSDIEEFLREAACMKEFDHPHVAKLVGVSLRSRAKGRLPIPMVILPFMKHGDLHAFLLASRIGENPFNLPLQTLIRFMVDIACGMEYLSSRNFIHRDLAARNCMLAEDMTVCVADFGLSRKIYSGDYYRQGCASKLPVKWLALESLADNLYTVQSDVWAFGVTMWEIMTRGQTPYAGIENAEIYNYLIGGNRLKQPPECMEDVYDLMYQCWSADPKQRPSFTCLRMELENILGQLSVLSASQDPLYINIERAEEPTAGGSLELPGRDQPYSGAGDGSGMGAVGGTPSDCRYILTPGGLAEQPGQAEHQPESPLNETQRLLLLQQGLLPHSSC
# From the text: as §1, §2, §3
# [3] = target: T3, MEK1 (Homo sapiens, UniProt Q02750)
# T3 construct: host or cells: E. coli derived from BL21, infected with T7 phage
# T3 sequence (Q02750 whole entry): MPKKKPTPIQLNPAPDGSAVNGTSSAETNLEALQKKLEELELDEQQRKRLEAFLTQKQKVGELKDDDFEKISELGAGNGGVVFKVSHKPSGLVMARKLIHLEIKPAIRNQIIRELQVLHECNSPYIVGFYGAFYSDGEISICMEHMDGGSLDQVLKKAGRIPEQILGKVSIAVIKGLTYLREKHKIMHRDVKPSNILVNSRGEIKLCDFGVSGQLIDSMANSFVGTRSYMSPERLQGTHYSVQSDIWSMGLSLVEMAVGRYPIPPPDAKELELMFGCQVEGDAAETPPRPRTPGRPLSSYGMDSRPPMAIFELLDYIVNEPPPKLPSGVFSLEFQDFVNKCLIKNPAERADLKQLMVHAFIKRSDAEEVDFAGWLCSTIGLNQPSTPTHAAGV
# From the text: as §1, §2, §3
# [4] = target: T4, BRAF (V600E) (Homo sapiens, UniProt P15056, V600E)
# T4 construct: purchased Ambit Biosciences Corp (KinomeScan); host or cells: E. coli host derived from the BL21 strain, T7 phage
# From the text: as §1, §2, §3
# [5] = target: T5, PRKR (Homo sapiens, UniProt P19525)
# T5 construct: purchased Ambit Biosciences Corp (KinomeScan); host or cells: E. coli host derived from BL21, infected with T7 phage
# T5 sequence (P19525 whole entry): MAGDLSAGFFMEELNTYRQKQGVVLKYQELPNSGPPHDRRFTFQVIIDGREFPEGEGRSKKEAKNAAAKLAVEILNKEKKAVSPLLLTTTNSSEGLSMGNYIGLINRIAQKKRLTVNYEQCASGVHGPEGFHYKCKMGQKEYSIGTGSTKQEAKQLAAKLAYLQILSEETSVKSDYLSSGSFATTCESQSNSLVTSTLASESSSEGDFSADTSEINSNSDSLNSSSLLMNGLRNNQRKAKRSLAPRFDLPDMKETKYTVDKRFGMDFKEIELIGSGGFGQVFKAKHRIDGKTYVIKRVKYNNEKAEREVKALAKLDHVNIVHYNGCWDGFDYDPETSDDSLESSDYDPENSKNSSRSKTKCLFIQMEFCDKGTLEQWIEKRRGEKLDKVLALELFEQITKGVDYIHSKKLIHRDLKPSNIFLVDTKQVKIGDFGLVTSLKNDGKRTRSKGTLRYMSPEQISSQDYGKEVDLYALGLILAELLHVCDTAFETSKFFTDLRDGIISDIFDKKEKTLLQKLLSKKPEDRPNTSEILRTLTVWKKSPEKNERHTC
# From the text: as §1, §2, §3
# [6] = target: T6, EGFR (L858R) (Homo sapiens, UniProt P00533, L858R)
# T6 construct: host or cells: E. coli host derived from BL21, T7 phage lysate
# From the text: as §1, §2, §3
# [7] = target: T7, DLK (Homo sapiens, UniProt Q12852)
# T7 construct: purchased Ambit Biosciences Corp (KinomeScan); host or cells: T7 phage in E. coli host derived from BL21
# T7 sequence (Q12852 whole entry): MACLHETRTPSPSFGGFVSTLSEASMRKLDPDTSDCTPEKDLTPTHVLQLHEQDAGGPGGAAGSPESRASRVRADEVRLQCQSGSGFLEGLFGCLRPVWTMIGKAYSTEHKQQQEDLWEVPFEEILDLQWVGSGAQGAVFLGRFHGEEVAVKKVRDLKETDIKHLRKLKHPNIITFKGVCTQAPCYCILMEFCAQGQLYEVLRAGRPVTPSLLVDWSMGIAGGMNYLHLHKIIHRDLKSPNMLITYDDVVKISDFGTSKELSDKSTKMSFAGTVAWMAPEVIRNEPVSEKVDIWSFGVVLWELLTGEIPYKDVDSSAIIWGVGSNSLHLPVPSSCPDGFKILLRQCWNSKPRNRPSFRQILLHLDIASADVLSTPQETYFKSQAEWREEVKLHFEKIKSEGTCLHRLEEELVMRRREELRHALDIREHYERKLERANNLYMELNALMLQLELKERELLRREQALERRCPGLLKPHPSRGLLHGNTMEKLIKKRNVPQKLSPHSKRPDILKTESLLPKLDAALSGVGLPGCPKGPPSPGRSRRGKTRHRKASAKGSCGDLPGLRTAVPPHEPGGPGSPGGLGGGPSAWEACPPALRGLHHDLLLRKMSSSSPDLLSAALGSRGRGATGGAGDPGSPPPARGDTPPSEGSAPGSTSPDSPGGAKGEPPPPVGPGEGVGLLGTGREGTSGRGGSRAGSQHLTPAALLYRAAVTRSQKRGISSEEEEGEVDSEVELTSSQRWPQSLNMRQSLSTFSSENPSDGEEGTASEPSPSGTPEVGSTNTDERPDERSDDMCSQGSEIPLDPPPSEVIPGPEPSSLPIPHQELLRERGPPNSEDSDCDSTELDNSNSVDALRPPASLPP
# From the text: as §1, §2, §3
# [8] = target: T8, PRKG2 (Homo sapiens, UniProt Q13237)
# T8 construct: purchased Ambit Biosciences Corp (KinomeScan); host or cells: E. coli host derived from BL21, infected with T7 phage
# T8 sequence (Q13237 whole entry): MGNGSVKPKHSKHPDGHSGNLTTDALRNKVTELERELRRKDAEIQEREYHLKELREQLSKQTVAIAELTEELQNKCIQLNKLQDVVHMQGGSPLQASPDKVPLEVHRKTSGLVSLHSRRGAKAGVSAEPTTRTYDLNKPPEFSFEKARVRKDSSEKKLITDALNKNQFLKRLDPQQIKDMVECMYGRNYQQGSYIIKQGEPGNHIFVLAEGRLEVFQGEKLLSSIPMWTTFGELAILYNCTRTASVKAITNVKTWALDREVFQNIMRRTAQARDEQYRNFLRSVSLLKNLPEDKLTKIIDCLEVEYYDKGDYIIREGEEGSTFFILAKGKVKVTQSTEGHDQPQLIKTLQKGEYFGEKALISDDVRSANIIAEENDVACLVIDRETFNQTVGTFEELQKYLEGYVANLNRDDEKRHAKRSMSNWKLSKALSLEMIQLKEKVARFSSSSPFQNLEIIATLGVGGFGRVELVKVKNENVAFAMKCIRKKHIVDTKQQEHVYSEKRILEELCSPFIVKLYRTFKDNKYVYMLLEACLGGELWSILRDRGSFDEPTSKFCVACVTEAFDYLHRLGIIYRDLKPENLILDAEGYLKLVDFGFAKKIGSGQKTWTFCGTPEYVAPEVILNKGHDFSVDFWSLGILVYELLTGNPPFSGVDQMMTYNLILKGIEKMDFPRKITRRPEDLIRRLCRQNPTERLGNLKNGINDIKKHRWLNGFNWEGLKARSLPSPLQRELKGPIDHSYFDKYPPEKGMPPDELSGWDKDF
# From the text: as §1, §2, §3
# [9] = target: T9, EGFR (Homo sapiens, UniProt P00533)
# T9 construct: purchased Ambit Biosciences Corp (KinomeScan); host or cells: T7 phage in E. coli host derived from BL21
# From the text: as §1, §2, §3
# [10] = target: T10, STK35 (Homo sapiens, UniProt Q8TDR2)
# T10 construct: host or cells: E. coli host derived from the BL21 strain, T7 phage lysate
# T10 sequence (Q8TDR2 whole entry): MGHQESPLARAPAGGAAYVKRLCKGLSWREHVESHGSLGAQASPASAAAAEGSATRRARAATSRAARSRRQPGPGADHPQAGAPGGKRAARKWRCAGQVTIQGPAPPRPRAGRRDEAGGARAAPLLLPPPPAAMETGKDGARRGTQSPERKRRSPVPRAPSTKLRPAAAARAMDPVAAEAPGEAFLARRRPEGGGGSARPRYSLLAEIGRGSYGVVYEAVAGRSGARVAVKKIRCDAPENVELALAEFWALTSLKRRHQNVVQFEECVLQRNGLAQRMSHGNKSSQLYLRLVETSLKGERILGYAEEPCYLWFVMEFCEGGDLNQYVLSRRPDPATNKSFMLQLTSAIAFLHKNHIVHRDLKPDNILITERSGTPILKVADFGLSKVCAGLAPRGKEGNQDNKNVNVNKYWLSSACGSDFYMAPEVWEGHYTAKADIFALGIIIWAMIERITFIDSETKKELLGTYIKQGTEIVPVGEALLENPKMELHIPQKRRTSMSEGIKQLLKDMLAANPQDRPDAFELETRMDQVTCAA
# From the text: as §1, §2, §3
# [11] = target: T11, MEK3 (Homo sapiens, UniProt P46734)
# T11 construct: host or cells: E. coli derived from BL21, infected with T7 phage
# From the text: as §1, §2, §3
# [12] = target: T12, YSK1 (Homo sapiens, UniProt O00506)
# T12 construct: host or cells: E. coli host derived from the BL21 strain, infected with T7 phage
# From the text: as §1, §2, §3
# [13] = target: T13, LYN (Homo sapiens, UniProt P07948)
# T13 construct: host or cells: E. coli derived from BL21, infected with T7 phage
# From the text: as §1, §2, §3
# [14] = target: T14, ERBB4 (Homo sapiens, UniProt Q15303)
# T14 construct: host or cells: E. coli host derived from BL21, T7 phage lysate
# From the text: as §1, §2, §3
# [15] = target: T15, GAK (Homo sapiens, UniProt O14976)
# T15 construct: host or cells: E. coli host derived from BL21, infected with T7 phage
# From the text: as §1, §2, §3
# [16] = target: T16, ULK1 (Homo sapiens, UniProt O75385)
# T16 construct: purchased Ambit Biosciences Corp (KinomeScan); host or cells: E. coli host derived from the BL21 strain (T7 phage lysate)
# T16 sequence (O75385 whole entry): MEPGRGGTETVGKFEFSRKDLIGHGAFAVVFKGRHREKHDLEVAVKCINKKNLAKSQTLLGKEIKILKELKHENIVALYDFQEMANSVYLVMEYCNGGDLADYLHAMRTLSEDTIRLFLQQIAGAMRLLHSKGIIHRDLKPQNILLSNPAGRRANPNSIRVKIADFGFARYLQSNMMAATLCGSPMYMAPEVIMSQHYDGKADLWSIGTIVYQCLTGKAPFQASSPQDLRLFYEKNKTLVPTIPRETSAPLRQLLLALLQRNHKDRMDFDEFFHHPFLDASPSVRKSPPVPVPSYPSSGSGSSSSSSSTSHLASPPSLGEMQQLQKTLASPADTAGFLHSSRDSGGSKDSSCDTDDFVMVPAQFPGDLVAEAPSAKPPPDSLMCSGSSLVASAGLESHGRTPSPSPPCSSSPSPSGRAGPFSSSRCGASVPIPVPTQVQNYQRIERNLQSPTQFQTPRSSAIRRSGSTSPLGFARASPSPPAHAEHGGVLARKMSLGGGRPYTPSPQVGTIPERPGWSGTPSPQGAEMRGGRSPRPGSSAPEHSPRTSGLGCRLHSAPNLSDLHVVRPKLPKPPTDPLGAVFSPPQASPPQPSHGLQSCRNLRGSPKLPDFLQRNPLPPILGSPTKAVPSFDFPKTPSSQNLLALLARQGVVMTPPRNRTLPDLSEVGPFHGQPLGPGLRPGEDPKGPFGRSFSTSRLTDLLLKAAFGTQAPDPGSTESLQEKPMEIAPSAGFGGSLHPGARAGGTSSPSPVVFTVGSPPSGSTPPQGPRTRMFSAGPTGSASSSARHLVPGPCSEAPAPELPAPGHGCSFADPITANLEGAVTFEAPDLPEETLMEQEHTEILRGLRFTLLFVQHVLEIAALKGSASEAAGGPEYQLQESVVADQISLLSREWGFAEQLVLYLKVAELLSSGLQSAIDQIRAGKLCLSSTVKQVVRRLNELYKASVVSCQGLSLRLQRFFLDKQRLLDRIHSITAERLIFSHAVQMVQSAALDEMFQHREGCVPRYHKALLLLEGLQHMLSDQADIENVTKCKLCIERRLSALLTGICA
# From the text: as §1, §2, §3
# [17] = target: T17, TYK2 (JH2domain-pseudokinase) (Homo sapiens, UniProt P29597)
# T17 construct: TYK2 (JH2domain-pseudokinase); purchased Ambit Biosciences Corp (KinomeScan); host or cells: E. coli host derived from the BL21 strain (T7 phage lysate)
# From the text: as §1, §2, §3
# [18] = target: T18, ADCK4 (Homo sapiens, UniProt Q96D53)
# T18 construct: host or cells: E. coli host derived from BL21 (T7 phage lysate)
# From the text: as §1, §2, §3
# [19] = target: T19, EGFR (G719C) (Homo sapiens, UniProt P00533, G719C)
# T19 construct: purchased Ambit Biosciences Corp (KinomeScan); host or cells: T7 phage in E. coli host derived from BL21
# From the text: as §1, §2, §3
# [20] = target: T20, EGFR (G719S) (Homo sapiens, UniProt P00533, G719S)
# T20 construct: purchased Ambit Biosciences Corp (KinomeScan); host or cells: T7 phage in E. coli host derived from BL21
# From the text: as §1, §2, §3
# [21] = target: T21, FGR (Homo sapiens, UniProt P09769)
# T21 construct: host or cells: E. coli host derived from BL21, infected with T7 phage
# From the text: as §1, §2, §3
# [22] = target: T22, AURKA (Homo sapiens, UniProt O14965)
# T22 construct: purchased Ambit Biosciences Corp (KinomeScan); host or cells: E. coli host derived from the BL21 strain, T7 phage
# From the text: as §1, §2, §3
structure (smiles),measurement,setting,value
"C#Cc1cccc(Nc2ncnc3cc(OC)c(OCCCN4CCOCC4)cc23)c1 [NRC-2694, N-(3-ethylnylphenyl)-7-methoxy-6-[3-(4-morpholinyl)propoxy]-4-quinazolinamine]",% Ctrl @ 10000 nM,[1],85 % Ctrl
same,% Ctrl @ 10000 nM,[2],42 % Ctrl
same,% Ctrl @ 10000 nM,[3],50 % Ctrl
same,% Ctrl @ 10000 nM,[4],73 % Ctrl
same,% Ctrl @ 10000 nM,[5],51 % Ctrl
same,% Ctrl @ 10000 nM,[6],0 % Ctrl
same,% Ctrl @ 10000 nM,[7],92 % Ctrl
same,% Ctrl @ 10000 nM,[8],40 % Ctrl
same,% Ctrl @ 10000 nM,[9],0 % Ctrl
same,% Ctrl @ 10000 nM,[10],52 % Ctrl
same,% Ctrl @ 10000 nM,[11],100 % Ctrl
same,% Ctrl @ 10000 nM,[12],69 % Ctrl
same,% Ctrl @ 10000 nM,[13],13 % Ctrl
same,% Ctrl @ 10000 nM,[14],3.3 % Ctrl
same,% Ctrl @ 10000 nM,[15],0.95 % Ctrl
same,% Ctrl @ 10000 nM,[16],100 % Ctrl
same,% Ctrl @ 10000 nM,[17],23 % Ctrl
same,% Ctrl @ 10000 nM,[18],14 % Ctrl
same,% Ctrl @ 10000 nM,[19],0 % Ctrl
same,% Ctrl @ 10000 nM,[20],0 % Ctrl
same,% Ctrl @ 10000 nM,[21],19 % Ctrl
same,% Ctrl @ 10000 nM,[22],100 % Ctrl

# Reference: patent publication US9050341B2, “Methods of treating drug resistant and other tumors by administering 6,7-dialkoxy quinazoline derivatives” (NATCO PHARMA LIMITED, priority 2009, dated 2015)
